Results reported in patent publication US8163805B2, “Small molecule antagonists of Bcl-2 family proteins” (The Regents of the University of Michigan, priority 2001, dated 2012).
Several values for one entry are separate records, joined by “and”; a condition that tells them apart may be missing. Identical values can stand only once.

Tests used:
UM-SCC-81B = assay: 6-day MTT cell growth, UM-SCC-81B; assay type: cell-based, human; conditions: read-out: IC50, inhibition of cell growth
Experimental: (§1) UM-SCC and human fibroblast cell lines were continuously exposed to varying concentrations of (−)-gossypol in 6-day MTT cell survival assays. Control wells contained media (DMEM) with vehicle alone. For each data point n=5.
(§2) Ten squamous cell carcinoma cell lines established at the University of Michigan (UM-SCC) and three human fibroblast lines were grown in Dulbecco's modified Eagle's medium (DMEM) supplemented with 10% fetal bovine serum. UM-SCC cell lines originated from the larynx (n=2; UM-SCC-12, -23), oral cavity/oropharynx (n=5; UM-SCC-1, -6, -14A, -74B, -81B), hypopharynx (n=1; UM-SCC-22A) and metastases from laryngeal cancers (n=2; UM-SCC-17B, -25). Human fibroblast cell lines originated from surgical specimens (fibroblast cell lines 2 and 3) and neonatal foreskin samples (fibroblast cell line 1).
(§3) Logarithmically growing cell lines were cultured, washed, counted, and plated at 5,000-15,000 cells per well in duplicate wells of 96-well plates and incubated in DMEM overnight. […] The MTT assay measures cell survival based on mitochondrial conversion of MTT from a soluble tetrazolium salt into an insoluble colored formazan precipitate, which is dissolved in dimethyl sulfoxide and quantitated by spectrophotometry. […] Percent absorbance relative to control was plotted as a linear function of drug concentration.

UM-SCC-25 = assay: 6-day MTT cell growth, UM-SCC-25; assay type: cell-based, human; conditions: read-out: IC50, inhibition of cell growth
Experimental: as §1, §2, §3

[1] = test system: Fib-2 (fibroblast cell line 2); assay: 6-day MTT cell growth, Fib-2; assay type: cell-based, human; conditions: read-out: IC50, inhibition of cell growth
Experimental: as §1, §2, §3

[2] = test system: Fib-3 (fibroblast cell line 3); assay: 6-day MTT cell growth, Fib-3; assay type: cell-based, human; conditions: read-out: IC50, inhibition of cell growth
Experimental: as §1, §2, §3

fibroblasts = assay: 6-day MTT cell survival, mean over fibroblasts; assay type: cell-based, human
UM-SCC-1 = assay: Trypan blue exclusion cell death, UM-SCC-1; assay type: cell-based, human; conditions: 10 μM, 48 hour
Experimental: (§4) Cells were seeded in 24 or 96-well-plates and gossypol compounds were prepared at 2-10 fold dilutions in suitable medium. […] Cell viability was then determined by the trypan-blue assays. Inhibition of cell growth was determined by treating cells with gossypol compounds for 3-6 days. Cell inhibition was determined using XTT. In some embodiments, MTT assays are used to determine cell inhibition.

UM-SCC-6 [3] = assay: Trypan blue exclusion cell death, UM-SCC-6; assay type: cell-based, human; conditions: 10 μM, 48 hour
Experimental: as §4

UM-SCC-6 [4] = assay: Flow cytometric TUNEL apoptosis assay, UM-SCC-6; assay type: cell-based, human; conditions: 10 μM, 48-hour
Experimental: (§5) Briefly, FIGS. 24A-24C show apoptosis after (−)-gossypol as measured by a fluorescent flow cytometric TUNEL assay. Open peaks represent BrdU labeling of untreated cells. Shaded peaks indicate BrdU labeling of cell populations following 48-hour treatment with 10 μM (−)-gossypol; FIG. 24A, UM-SCC-cell lines with wild type p53; FIG. 24B, UM-SCC-cell lines with mutant p53; and FIG. 24C normal fibroblast cells.
(§6) Apoptosis of UM-SCC cell lines following (−)-gossypol treatment was quantitatively detected by enzymatic labeling of DNA strand breaks using terminal deoxynucleotidyltransferase (TdT) and Alexa Fluor-BrdUTP, known as the TdT-UTP nick end-labeling (TUNEL) assay by flow cytometry. Cells were exposed to (−)-gossypol for 48 hours, harvested, fixed and TUNEL stained according to the manufacturer's protocol (Molecular Probes Inc., Eugene, Oreg.). Ten thousand cells were analyzed per sample using excitation of Alexa Fluor at 488 nm. Apoptotic index (AI) was defined as percent of apoptotic cells in the treatment population minus that in the vehicle control population.

UM-SCC-14A = assay: Flow cytometric TUNEL apoptosis assay, UM-SCC-14A; assay type: cell-based, human; conditions: 10 μM, 48-hour
Experimental: as §5, §6

[5] = test system: PC-3 prostate cancer cells; assay: MTT-based 5-day cell proliferation, PC-3; design: species or system human
Text: (§7) The present invention is not limited to any mechanism. Indeed, a mechanistic understanding of the invention is unnecessary to practice (make and use) the present compositions and methods.

[6] = test system: LnCap prostate cancer cells; assay: MTT-based 5-day cell proliferation, LnCap; design: species or system human
Text: as §7

[7] = test system: PC-3 human prostate cancer bilateral xenografts; assay: PC-3 xenograft, (−)-gossypol alone and with cisplatin (Table 11); assay type: in vivo, NCr-nu nude mouse; conditions: Table 11
[8] = test system: androgen independent prostate cancer PC-3 xenograft; assay: PC-3 xenograft, (−)-gossypol alone and with docetaxel (Example 22); conditions: for complete tumor regression, number of mice: combination of (−)-gossypol with docetaxel
[9] = test system: A549 non-small cell lung carcinoma xenograft; assay: A549 non-small cell lung carcinoma xenograft, (−)-gossypol with paclitaxel; conditions: Table 13; combinations of G- with paclitaxel at 7.5 mg/kg
[10] = (−)-gossypol 7.5 mg/kg p.o. daily 4 weeks, docetaxel 7.5 mg/kg once a week 3 weeks

Cc1cc2c(C(C)C)c(O)c(O)c(C=O)c2c(O)c1-c1c(C)cc2c(C(C)C)c(O)c(O)c(C=O)c2c1O [(−)-gossypol]
IC50 (UM-SCC-81B): 4 µM | IC50 (UM-SCC-25): 8 µM | IC50 [1]: 20 µM | IC50 [2]: 18 µM | IC50 (fibroblasts): 20.3 ± 9.2 µM | surviving (trypan blue excluding) fraction relative to untreated controls (UM-SCC-1): 20% | surviving (trypan blue excluding) fraction relative to untreated controls (UM-SCC-6 [3]): 9% | apoptotic index (AI) (UM-SCC-6 [4]): 80.3% | apoptotic index (AI) (UM-SCC-14A): 14.1% | potency in inhibiting cancer cell growth relative to (+)-gossypol [5]: 5-10 times | potency in inhibiting cancer cell growth relative to racemic gossypol [5]: 2 times | potency in inhibiting cancer cell growth relative to (+)-gossypol [6]: 5-10 times | potency in inhibiting cancer cell growth relative to racemic gossypol [6]: 2 times | tumor growth inhibition compared with vehicle control ([7]; (−)-gossypol 7.5 mg/kg p.o. in combination with cisplatin 5 mg/kg i.v.): cisplatin at 5 mg/kg achieved 65% | weight loss during the treatment ([7]; combination regimen of (−)-gossypol 7.5 mg/kg p.o. with cisplatin 5 mg/kg i.v.): CDDP alone, and 20-23% weight | Complete tumor regression/Total [8, 10]: 2 out of 12 and 2/12 | Percent regression [8, 10]: 17% | tumor growth inhibition compared with vehicle control ([8]; Table 9, (−)-gossypol 15 mg/kg p.o. in combination with docetaxel 7.5 mg/kg i.v.): 84% tumor growth inhibition as | tumor growth inhibition on day 42 ([8]; Table 9, PC-3 flank xenografts (~100 mm^3 at start), NCr-nu nude mouse, 15 mg/kg daily p.o., alone): growth inhibition (52% on day 42, | complete tumor regression, number of mice ([8]; Table 9, out of 5 mice): complete tumor regression in 3 out mice | tumor inhibition compared with vehicle control ([8]; Table 10, (−)-gossypol in combination with docetaxel 7.5 mg/kg i.v.): at 7.5 mg/kg achieved 89.9% tumor | tumor growth inhibition on day 56 compared to vehicle controls ([8]; Table 10, PC-3 flank xenografts (~120 mm^3 at start), NCr-nu nude mouse, daily p.o. for 28 days, alone (racemic 15 mg/kg)): antitumor activity (60% on day 56, | complete tumor regression, number of mice ([8]; Table 10, out of 8 mice): complete tumor regression in 5 out mice | tumor growth inhibition compared with vehicle control [9]: 76% tumor growth inhibition as
